Experimental findings from patent US11420958B2, “Aryl and heteroaryl substituted indole compounds” (BRISTOL-MYERS SQUIBB COMPANY, priority 2017, dated 2022) are described below.

pIC50: −log10 of the molar value.

Format in all cases: cell-based
One assay addresses human TLR7 (Homo sapiens (Human), UniProt Q9NYK1). Kind of assay: TLR7 inhibition reporter assay (HEK-Blue, SEAP). The conditions noted are these: HEK-Blue cells overexpressing human TLR7, gardiquimod 7.5 μM stimulation. An outline of the steps:
(§1)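 Percent inhibition of agonist-induced SEAP secretion was scored against DMSO-only and reference-inhibitor controls. Stimulation lasted 22 h at 37 °C following 30 min compound pre-exposure (0.05 nM–50 μM); ligands were gardiquimod 7.5 μM, R848 15.9 μM and ODN2006 5 nM for TLR7, 8 and 9.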

In the next assay the target is human TLR9 (Homo sapiens (Human), UniProt Q9NR96). The assay can be described thus: TLR9 inhibition reporter assay (HEK-Blue, SEAP). To be noted: HEK-Blue cells overexpressing human TLR9, ODN2006 5 nM stimulation. The procedure, abridged: as §1
Sequence of human TLR9 (Q9NR96 26-1032): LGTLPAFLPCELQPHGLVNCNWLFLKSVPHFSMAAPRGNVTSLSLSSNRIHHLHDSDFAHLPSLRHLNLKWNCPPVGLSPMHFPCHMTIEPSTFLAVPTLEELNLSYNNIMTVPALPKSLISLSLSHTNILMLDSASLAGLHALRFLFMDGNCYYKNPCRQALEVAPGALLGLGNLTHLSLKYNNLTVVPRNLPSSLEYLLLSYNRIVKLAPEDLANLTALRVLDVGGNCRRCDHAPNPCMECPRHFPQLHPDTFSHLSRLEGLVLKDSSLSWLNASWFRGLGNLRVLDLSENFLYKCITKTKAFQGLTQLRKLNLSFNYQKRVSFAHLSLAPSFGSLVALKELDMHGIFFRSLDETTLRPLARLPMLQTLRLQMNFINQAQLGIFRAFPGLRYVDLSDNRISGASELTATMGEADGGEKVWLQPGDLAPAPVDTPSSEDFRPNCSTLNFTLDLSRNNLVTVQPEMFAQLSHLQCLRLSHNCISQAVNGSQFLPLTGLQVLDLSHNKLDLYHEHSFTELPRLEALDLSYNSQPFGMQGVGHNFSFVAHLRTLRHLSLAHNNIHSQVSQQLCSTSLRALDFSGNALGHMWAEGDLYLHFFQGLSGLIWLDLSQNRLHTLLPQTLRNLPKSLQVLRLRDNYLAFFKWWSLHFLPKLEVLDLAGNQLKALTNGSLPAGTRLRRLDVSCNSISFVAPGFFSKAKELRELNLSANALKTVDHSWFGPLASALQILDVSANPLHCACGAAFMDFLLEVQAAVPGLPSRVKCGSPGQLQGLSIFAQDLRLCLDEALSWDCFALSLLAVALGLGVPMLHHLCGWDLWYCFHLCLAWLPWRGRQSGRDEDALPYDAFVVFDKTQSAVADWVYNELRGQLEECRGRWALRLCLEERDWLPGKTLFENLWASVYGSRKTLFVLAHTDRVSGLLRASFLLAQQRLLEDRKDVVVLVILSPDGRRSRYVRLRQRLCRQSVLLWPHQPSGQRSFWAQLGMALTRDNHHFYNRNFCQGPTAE
Background: Reporter assays use an easily measured gene product as a stand-in for the process of interest.

For another assay, the target named is human TLR8 (Homo sapiens (Human), UniProt Q9NR97). The assay can be described thus: TLR8 inhibition reporter assay (HEK-Blue, SEAP). To be noted: HEK-Blue cells overexpressing human TLR8, R848 15.9 μM stimulation. The procedure, abridged: as §1
Sequence of human TLR8 (Q9NR97 27-1041): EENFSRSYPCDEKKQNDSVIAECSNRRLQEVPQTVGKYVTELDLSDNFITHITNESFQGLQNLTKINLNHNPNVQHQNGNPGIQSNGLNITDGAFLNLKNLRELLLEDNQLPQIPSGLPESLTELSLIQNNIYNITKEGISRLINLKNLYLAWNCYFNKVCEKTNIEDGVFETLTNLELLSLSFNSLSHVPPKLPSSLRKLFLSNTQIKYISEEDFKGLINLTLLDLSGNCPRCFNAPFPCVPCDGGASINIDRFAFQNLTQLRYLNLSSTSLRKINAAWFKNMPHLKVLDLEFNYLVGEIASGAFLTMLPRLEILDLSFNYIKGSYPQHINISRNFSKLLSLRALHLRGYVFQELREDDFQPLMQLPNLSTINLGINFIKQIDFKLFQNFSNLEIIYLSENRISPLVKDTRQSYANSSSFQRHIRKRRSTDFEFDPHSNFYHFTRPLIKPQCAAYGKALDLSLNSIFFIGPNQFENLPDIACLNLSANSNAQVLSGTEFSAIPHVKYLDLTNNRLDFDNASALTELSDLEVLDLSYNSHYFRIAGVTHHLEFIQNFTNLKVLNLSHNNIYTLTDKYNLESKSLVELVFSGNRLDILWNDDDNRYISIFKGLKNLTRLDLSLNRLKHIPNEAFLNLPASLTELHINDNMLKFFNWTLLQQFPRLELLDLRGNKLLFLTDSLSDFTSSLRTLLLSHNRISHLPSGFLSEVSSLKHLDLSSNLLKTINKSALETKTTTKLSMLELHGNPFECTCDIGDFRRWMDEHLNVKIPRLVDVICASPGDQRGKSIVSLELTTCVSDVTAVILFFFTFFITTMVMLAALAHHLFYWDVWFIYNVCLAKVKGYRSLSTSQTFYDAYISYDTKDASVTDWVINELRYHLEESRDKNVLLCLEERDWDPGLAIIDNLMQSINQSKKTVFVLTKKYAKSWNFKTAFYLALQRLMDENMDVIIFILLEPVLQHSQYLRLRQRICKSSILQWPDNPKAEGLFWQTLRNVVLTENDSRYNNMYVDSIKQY

Sequence of human TLR7 (Q9NYK1 27-1049): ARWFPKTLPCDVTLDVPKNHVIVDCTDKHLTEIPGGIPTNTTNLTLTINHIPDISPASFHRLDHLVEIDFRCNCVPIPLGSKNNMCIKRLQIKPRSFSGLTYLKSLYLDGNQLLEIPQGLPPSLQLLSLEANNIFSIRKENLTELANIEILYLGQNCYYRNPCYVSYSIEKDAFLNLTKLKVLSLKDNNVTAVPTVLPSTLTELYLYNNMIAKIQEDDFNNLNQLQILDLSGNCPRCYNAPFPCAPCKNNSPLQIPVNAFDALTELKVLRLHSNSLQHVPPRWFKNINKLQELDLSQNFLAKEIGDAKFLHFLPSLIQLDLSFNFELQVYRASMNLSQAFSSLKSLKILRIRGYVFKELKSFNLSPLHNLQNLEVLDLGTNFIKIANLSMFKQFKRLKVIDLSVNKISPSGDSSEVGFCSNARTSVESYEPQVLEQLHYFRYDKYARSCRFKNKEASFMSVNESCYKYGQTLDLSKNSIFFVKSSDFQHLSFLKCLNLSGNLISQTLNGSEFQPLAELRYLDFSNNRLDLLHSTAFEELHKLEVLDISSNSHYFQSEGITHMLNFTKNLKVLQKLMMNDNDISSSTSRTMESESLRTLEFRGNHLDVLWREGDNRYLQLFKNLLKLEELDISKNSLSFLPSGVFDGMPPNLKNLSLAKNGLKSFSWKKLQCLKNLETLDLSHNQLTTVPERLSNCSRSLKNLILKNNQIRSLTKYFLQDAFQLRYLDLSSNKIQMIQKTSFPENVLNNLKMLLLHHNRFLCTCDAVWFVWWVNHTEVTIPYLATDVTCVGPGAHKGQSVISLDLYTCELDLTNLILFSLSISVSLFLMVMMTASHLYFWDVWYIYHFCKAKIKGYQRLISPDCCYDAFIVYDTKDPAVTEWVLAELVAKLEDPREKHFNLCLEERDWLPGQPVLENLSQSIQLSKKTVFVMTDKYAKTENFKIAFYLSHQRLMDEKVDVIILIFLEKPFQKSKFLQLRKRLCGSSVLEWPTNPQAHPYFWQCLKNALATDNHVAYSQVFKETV

As for `COCCN(CCOC)Cc1nnc(-c2ccc3[nH]c(-c4ccc(OC)c(OC)c4)c(C(C)C)c3c2)o1` [Example 118, N-((5-(2-(3,4-dimethoxyphenyl)-3-isopropyl-1H-indol-5-yl)-1,3,4-oxadiazol-2-yl)methyl)-2-methoxy-N-(2-methoxyethyl)ethan-1-amine], the pIC50 – broadly, −log10 of the IC50, conventionally taken in molar units – was 6.64 against human TLR7, 4.73 on human TLR9 and 6.44 at human TLR8.

On to `Cc1cc(-c2[nH]c3ccc(-c4nnc(C(=O)N5CCC(NC(C)C)CC5)o4)cc3c2C(C)C)cc(C)n1` [Example 240, (5-(2-(2,6-dimethylpyridin-4-yl)-3-isopropyl-1H-indol-5-yl)-1,3,4-oxadiazol-2-yl)(4-(isopropylamino)piperidin-1-yl)methanone], for which the pIC50 against human TLR7 was 7.41; against human TLR9, 6.44; against human TLR8, 8.12.

With `Cc1cc(-c2[nH]c3ccc(-c4nc(C(=O)NCC5CNC5)co4)cc3c2C(C)C)cc(C)n1` [Example 288, N-(azetidin-3-ylmethyl)-2-(2-(2,6-dimethylpyridin-4-yl)-3-isopropyl-1H-indol-5-yl)oxazole-4-carboxamide], the negative-log IC50 (pIC50) on human TLR7 was 7.16; against human TLR9, 6.14; against human TLR8 it was 7.10.

In the case of `CCc1c(-c2ccc(OC)c(OC)c2)[nH]c2ccc(-c3ccc(N4CCN(C)CC4)cc3)cc12` [Example 381, 2-(3,4-dimethoxyphenyl)-3-ethyl-5-(4-(4-methylpiperazin-1-yl)phenyl)-1H-indole], the pIC50 is 6.29 against human TLR7, 4.33 at human TLR9 and 4.65 against human TLR8.

In the case of `Cc1cc(-c2[nH]c3ccc(-c4nnc(C(=O)NCCN(C)C)o4)cc3c2C(C)C)cc(C)n1` [Example 223, N-(2-(dimethylamino)ethyl)-5-(2-(2,6-dimethylpyridin-4-yl)-3-isopropyl-1H-indol-5-yl)-1,3,4-oxadiazole-2-carboxamide], the figures for the negative-log IC50 (pIC50) at human TLR7, against human TLR9 and on human TLR8 were 8.18, 6.86 and 9.00, respectively.

`CNC(=O)CN1CCCC(c2nnc(-c3ccc4[nH]c(-c5ccnc(C)c5)c(C(C)C)c4c3)[nH]2)C1` (stereo not drawn) [Example 175, 2-(3-(5-(3-isopropyl-2-(2-methylpyridin-4-yl)-1H-indol-5-yl)-4H-1,2,4-triazol-3-yl)piperidin-1-yl)-N-methylacetamide]: the negative-log IC50 (pIC50) on human TLR7 was 6.25; on human TLR9, less than 4.30; at human TLR8 it was 8.13.

For the compound `CCc1c(-c2ccc(OC)c(OC)c2)[nH]c2ccc(-c3noc(C4CC(=O)N(C)C4)n3)cc12` (stereo not drawn) [Example 441, 4-(3-(2-(3,4-dimethoxyphenyl)-3-ethyl-1H-indol-5-yl)-1,2,4-oxadiazol-5-yl)-1-methylpyrrolidin-2-one], the pIC50 was 5.48 on human TLR7, less than 4.30 at human TLR9 and 6.45 against human TLR8.

In the case of `CC(C)c1c(-c2ccnc(N)c2)[nH]c2ccc(-c3nc(C(=O)NC4CCN(C(C)C)CC4)co3)cc12` [Example 160, 2-(2-(2-aminopyridin-4-yl)-3-isopropyl-1H-indol-5-yl)-N-(1-isopropylpiperidin-4-yl)oxazole-4-carboxamide], the pIC50 against human TLR7 was 6.92; at human TLR9, 5.41; at human TLR8 it was 7.64.

`Cc1cc(-c2[nH]c3ccc(-c4nc(C(=O)N5CC6CNCC6C5)co4)cc3c2C(C)C)ccn1` (stereo not drawn) [Example 172, (hexahydropyrrolo[3,4-c]pyrrol-2(1H)-yl)(2-(3-isopropyl-2-(2-methylpyridin-4-yl)-1H-indol-5-yl)oxazol-4-yl)methanone]: the pIC50 was 7.31 on human TLR7, 5.67 against human TLR9 and 8.64 at human TLR8.

With `COc1ccc(-c2[nH]c3ccc(-c4nnc(Cc5c[nH]cn5)o4)cc3c2C(C)C)cc1OC` [Example 45, 2-((1H-imidazol-4-yl)methyl)-5-(2-(3,4-dimethoxyphenyl)-3-isopropyl-1H-indol-5-yl)-1,3,4-oxadiazole], the pIC50 was 6.81 on human TLR7, less than 4.30 at human TLR9 and 7.80 at human TLR8.

Take `CNCCNc1ccc(-c2ccc3[nH]c(-c4cc(C)nc(C)c4)c(C(C)C)c3c2)cn1` [Example 239, N1-(5-(2-(2,6-dimethylpyridin-4-yl)-3-isopropyl-1H-indol-5-yl)pyridin-2-yl)-N2-methylethane-1,2-diamine]: the negative-log IC50 (pIC50) against human TLR7 is 8.32; against human TLR9 it was 6.23; on human TLR8, 8.66.

On to `COc1ccc(-c2[nH]c3ccc(-c4nnc(C5CCN(C)CC5)o4)cc3c2C(C)C)cc1OC` [Example 20, 2-(2-(3,4-dimethoxyphenyl)-3-isopropyl-1H-indol-5-yl)-5-(1-methylpiperidin-4-yl)-1,3,4-oxadiazole], for which the negative-log IC50 (pIC50) on human TLR7 was 7.51; at human TLR9, 6.09; at human TLR8, 8.32.

Take `CCc1c(-c2ccc(OC)c(OC)c2)[nH]c2ccc(-c3ccncc3)cc12` [Example 471, 2-(3,4-dimethoxyphenyl)-3-ethyl-5-(pyridin-4-yl)-1H-indole]: the figures for the pIC50 on human TLR7, against human TLR9 and on human TLR8 were 5.66, 4.37 and 6.62, respectively.

As for `Cc1cc(-c2[nH]c3ccc(-c4nc(C(=O)NCCCN)co4)cc3c2C(C)C)cc(C)n1` [Example 278, N-(3-aminopropyl)-2-(2-(2,6-dimethylpyridin-4-yl)-3-isopropyl-1H-indol-5-yl)oxazole-4-carboxamide], the results for the pIC50 at human TLR7, against human TLR9 and on human TLR8 were 7.48, 6.31 and 7.43, respectively.

Regarding `COc1ccc(-c2[nH]c3ccc(-c4nnc(C5CCN(CC(=O)N(C)C)CC5)[nH]4)cc3c2C(C)C)cc1OC` [Example 129, 2-(4-(5-(2-(3,4-dimethoxyphenyl)-3-isopropyl-1H-indol-5-yl)-4H-1,2,4-triazol-3-yl)piperidin-1-yl)-N,N-dimethylacetamide], the pIC50 at human TLR7 was 7.22; against human TLR9 it was 5.46; at human TLR8, 7.85.

For `CNCCN1CCn2nc(-c3ccc4[nH]c(-c5ccnc6[nH]ncc56)c(C(C)C)c4c3)nc2C1` [Example 217, 2-(2-(3-isopropyl-2-(1H-pyrazolo[3,4-b]pyridin-4-yl)-1H-indol-5-yl)-5,6-dihydro-[1,2,4]triazolo[1,5-a]pyrazin-7(8H)-yl)-N-methylethan-1-amine], the pIC50 at human TLR7 is 6.38; against human TLR9, less than 4.30; at human TLR8 it was 7.39.

Regarding `CCc1c(-c2ccnc(C)c2)[nH]c2ccc(-c3noc(CN(C)C)n3)cc12` [Example 453, 1-(3-(3-ethyl-2-(2-methylpyridin-4-yl)-1H-indol-5-yl)-1,2,4-oxadiazol-5-yl)-N,N-dimethylmethanamine], the pIC50 was 6.15 at human TLR7, 4.63 against human TLR9 and 7.49 against human TLR8.

As for `Cc1cc(-c2[nH]c3ccc(-c4nnc(C5CN6CCC5CC6)o4)cc3c2C(C)C)cc(C)n1` (stereo not drawn) [Example 296, 2-(2-(2,6-dimethylpyridin-4-yl)-3-isopropyl-1H-indol-5-yl)-5-(quinuclidin-3-yl)-1,3,4-oxadiazole], the pIC50 at human TLR7 is 8.32; against human TLR9 it was 6.51; on human TLR8, 8.77.

As to `Cc1cc(-c2[nH]c3ccc(-c4nnc(C5CCCN(C(C)C)C5)[nH]4)cc3c2C(C)C)cc(C)n1` (stereo not drawn) [Example 340, 2-(2,6-dimethylpyridin-4-yl)-3-isopropyl-5-(5-(1-isopropylpiperidin-3-yl)-4H-1,2,4-triazol-3-yl)-1H-indole], the negative-log IC50 (pIC50) against human TLR7 is 8.40; on human TLR9, 6.58; against human TLR8, 8.44.

Consider `Cc1cc(-c2[nH]c3ccc(-c4ccnc(N5CCN(C)CC5)c4)cc3c2C(C)C)cc(C)n1` [Example 319, 2-(2,6-dimethylpyridin-4-yl)-3-isopropyl-5-(2-(4-methylpiperazin-1-yl)pyridin-4-yl)-1H-indole], for which the values for the negative-log IC50 (pIC50) on human TLR7, against human TLR9 and at human TLR8 were 8.15, 6.29 and 8.01, respectively.

For `COc1ccc(-c2[nH]c3ccc(-c4cccc(-c5cccc(CN6CCOCC6)c5)c4)cc3c2C(C)C)cc1OC` [Example 396, 4-((3′-(2-(3,4-dimethoxyphenyl)-3-isopropyl-1H-indol-5-yl)-[1,1′-biphenyl]-3-yl)methyl)morpholine], the pIC50 at human TLR7 was 5.64; at human TLR9, less than 4.30; against human TLR8 it was 6.28.

Consider `Cc1cc(-c2[nH]c3ccc(-c4ccnc(N5CCN(C)CC5)c4)cc3c2C(C)C)ccn1` [Example 269, 3-isopropyl-5-(2-(4-methylpiperazin-1-yl)pyridin-4-yl)-2-(2-methylpyridin-4-yl)-1H-indole], for which the negative-log IC50 (pIC50) on human TLR7 was 7.13; on human TLR9, 6.08; on human TLR8, 8.26.

For `Cc1cc(-c2[nH]c3ccc(-c4nnc([C@H]5CCCNC5)o4)cc3c2C(C)C)ccn1` [Example 69, (S)-2-(3-isopropyl-2-(2-methylpyridin-4-yl)-1H-indol-5-yl)-5-(piperidin-3-yl)-1,3,4-oxadiazole], the results for the negative-log IC50 (pIC50) against human TLR7, against human TLR9 and on human TLR8 were 7.80, 6.16 and 9.05, respectively.

For the compound `Cc1cc(-c2[nH]c3ccc(-c4nnc([C@@H]5CCCN(C(C)C)C5)o4)cc3c2C(C)C)cc(C)n1` [Example 245, (R)-2-(2-(2,6-dimethylpyridin-4-yl)-3-isopropyl-1H-indol-5-yl)-5-(1-isopropylpiperidin-3-yl)-1,3,4-oxadiazole], the pIC50 against human TLR7 is 8.27; at human TLR9, 6.52; on human TLR8 it was 8.82.

In the case of `COc1ccc(-c2[nH]c3ccc(-c4nc(C(=O)N5CC6CNCC6C5)co4)cc3c2C(C)C)cc1OC` (stereo not drawn) [Example 127, (2-(2-(3,4-dimethoxyphenyl)-3-isopropyl-1H-indol-5-yl)oxazol-4-yl)(hexahydropyrrolo[3,4-c]pyrrol-2(1H)-yl)methanone], the values for the pIC50 on human TLR7, against human TLR9 and at human TLR8 were 7.68, 5.80 and 8.19, respectively.
